Results on 84 compounds are retold here after a melting point compilation (Tetko et al.).

In general, melting point refers to the temperature of the solid-liquid transition. On to `CCOc1ncccc1C(=O)O`, for which the melting point is 90 to 92 °C. Under `COC(=O)c1cc(F)ccc1CBr` stands 41 to 43 °C.

Compound `NC(=O)c1c(NC(=O)CCl)sc2c1CCC2` gave a melting point of 181 to 183 °C. Under `O=C(O)Cc1c[nH]c2cc(F)ccc12` stands 159 to 161 °C; under `Nc1cc([N+](=O)[O-])ccn1`, 96 to 98 °C; under `CC(C)c1nn(-c2ccccc2)cc1C(=O)O`, 169 to 171 °C. Under `COC(=O)C(N)c1cccnc1` (centres undefined) stands 61 to 63 °C; under `O=C1OCC(c2ccc(Cl)cc2)=C1c1cccs1`, 65 to 67 °C; under `Nc1nc(CN2CCN(c3ccc(F)cc3)CC2)cs1`, 194 to 196 °C. Under `Cc1cc(C=O)c(C)n1-c1cccc(C(F)(F)F)c1` stands 103 to 105 °C. `Nc1cccc(CS(=O)(=O)c2ccccc2)c1`: the melting point lay in the range of 132 to 134 °C.

Turning to `O=C(O)c1cc(/C=C/c2ccc(F)cc2)nc2ccc(Br)cc12`, the melting point was in the range of 299 to 301 °C. `CC(O)c1ccc2c(c1)NC(=O)CO2` (centres undefined) had a melting point of 137 to 139 °C. The figure for `Sc1nc(-c2ccccc2)c(-c2ccccc2)n1Cc1ccccc1` is 280 to 282 °C; for `CCCS(=O)(=O)Nc1ccc(N)cc1` it is 111 to 113 °C.

Compound `CC(Cc1ccc(Cl)cc1Cl)C(=O)O` (centres undefined) showed a melting point of 49 to 51 °C. Consider `Cc1c(N)cccc1CS(C)(=O)=O`, for which the melting point is 149 to 151 °C. For `O=C(O)c1ccc(-c2ccccc2)o1`, the melting point was in the range of 153 to 155 °C. Under `O=C(O)c1cccc(-n2cnnn2)c1` stands 168 to 170 °C; under `CS(=O)(=O)c1ccc(-c2csc(N)n2)cc1`, 260 to 262 °C; under `CC(=O)c1ccc(-c2ccc(Cl)c(Cl)c2)cc1`, 135 to 137 °C. The figure for `Cn1c(=O)c2c(n(Cc3ccccc3)c1=O)NC(=O)C2CC(=O)O` (centres undefined) is 243 to 247 °C; for `N#CCCOc1ccccc1` it is 58 to 61 °C; for `Nc1nc2c(Br)cc(OC(F)(F)F)cc2s1` it is 202 to 204 °C. The figure for `FC(F)(F)c1cc(Cl)nc(-c2ccncc2)n1` is 158 to 160 °C. Consider `Nc1c(-c2ccccc2)ncn1N`, for which the melting point lay within 126 to 128 °C. Under `S=C=Nc1ccc2ccccc2c1` stands 59 to 61 °C; under `O=Cc1c[nH]c2cccc(F)c12`, 169 to 171 °C. The figure for `CC(=O)c1ccc(S(=O)(=O)NCCCC(=O)O)cc1` is 140 to 142 °C. `O=C(CCl)NC(=O)c1ccccc1`: the melting point was 157 to 159 °C. The compound `NCc1cccc(NC(N)=O)c1` displayed a melting point of 143 to 145 °C. Under `COc1ccc(C(=O)O)cc1S(=O)(=O)N1CCCc2ccccc21` stands 211 to 213 °C.

Compound `CC1CN(S(=O)(=O)Cl)CC(C)O1` (centres undefined) had a melting point of 74 to 76 °C. For `Nc1ccccc1S(=O)(=O)C(F)F`, the melting point lay within 65 to 67 °C. Compound `Nc1cc(=O)[nH][nH]1` came in with a melting point of 204 to 206 °C. `O=C(NCc1cccc(Cl)c1)c1ccc(F)cc1`: the melting point was in the range of 59 to 61 °C. The figure for `O=C(Nc1ccccc1C(F)(F)F)OCC(F)(F)F` is 68 to 70 °C. The compound `Nc1ccc(Cl)nc1C(=O)O` yielded a melting point of 219 to 221 °C. Under `O=C(O)/C=C/c1ccc(OC(F)F)cc1OC(F)F` stands 106 to 108 °C; under `O=C(CCl)NCC1(c2ccccc2)CCCC1`, 74 to 76 °C; under `CCOC(=O)c1sc(N)c(C(=O)c2ccccc2)c1C`, 119 to 121 °C. The figure for `O=C(O)c1ccc(NC(=O)c2cccc(Br)c2)cc1` is 271 to 273 °C; for `Cc1ccc(C(=O)O)cc1NS(=O)(=O)c1ccc(F)cc1` it is 234 to 236 °C; for `OCc1ccc(O)c(Cl)c1` it is 85 to 87 °C. Under `O=C(O)CC1CCS(=O)(=O)C1` (centres undefined) stands 87 to 89 °C; under `Cc1ccc(C(N)C(=O)O)cc1` (centres undefined), 269 to 271 °C.

Consider `CN(C)S(=O)(=O)c1cccc(C(=O)O)c1`, for which the melting point is 146 to 150 °C. Turning to `CCNS(=O)(=O)c1cccc(F)c1`, the melting point was in the range of 49 to 51 °C.

`Cc1nc(N(C)C)sc1C=O` yielded a melting point of 116 to 118 °C. For `CC(=O)c1ccc(S(=O)(=O)N(C)C)cc1`, the melting point fell in the range of 99 to 101 °C. Compound `Cc1nc(-c2ccc(Br)cc2Cl)n[nH]1` yielded a melting point of 179 to 181 °C.

`Brc1cnc2nc[nH]c2c1`: the melting point fell in the range of 217 to 219 °C. Under `CC(=O)N1CSCC1C(=O)O` (centres undefined) stands 111 to 113 °C. Under `O=CC1=Cc2c(ccc3ccccc23)OC1` stands 144 to 146 °C; under `O=C(O)c1cccc(NS(=O)(=O)c2cccs2)c1`, 197 to 199 °C; under `COC(=O)c1ccc(C#N)cc1OC`, 101 to 103 °C. As for `Cc1sc(C(=O)O)cc1-c1ccc(F)cc1`, the melting point lay in the range of 156 to 158 °C. The figure for `O=C(O)C1CC(=O)N(c2ccccc2Br)C1` (centres undefined) is 177 to 179 °C.

`NC(Cc1cccc2cccnc12)=NO` registered a melting point of 172 to 174 °C. `O=C(O)C(=Cc1ccc(Cl)cc1)c1ccc(F)cc1` showed a melting point of 204 to 206 °C. For the compound `CN(c1ccccc1)S(=O)(=O)c1ccc(Cl)c(C(=O)O)c1`, the melting point lay within 151 to 153 °C.

On to `COC(=O)C1(O)CCN(Cc2ccccc2)CC1`, for which the melting point was 75 to 77 °C. As to `Cc1nnc(Cl)c(C#N)c1C`, the melting point was in the range of 61 to 63 °C.

`Cc1n[nH]c(C2CCCCC2)n1`: the melting point was in the range of 127 to 129 °C. For the compound `N#CC1(NC(=O)CCl)CCCCC1`, the melting point lay within 130 to 132 °C. The figure for `CC(C)(C)c1c(C(=O)O)nnn1-c1ccc(Cl)cc1F` is 152 to 154 °C; for `Cc1c(C(=O)O)cnn1Cc1ccccc1` it is 172 to 174 °C. For the compound `CCC(C)Oc1ccccc1C=CC(=O)O` (centres undefined), the melting point lay within 83 to 85 °C. Under `CCCCN1C(=O)CCC(C(=O)O)C1c1ccccc1OC` (centres undefined) stands 288 to 290 °C; under `Cc1ccc(C(=O)Nc2nc3ccc(N)cc3s2)s1`, 250 to 252 °C. The figure for `Nc1nnc(-c2ccncc2)[nH]1` is 271 to 273 °C; for `Nc1cc2c(cc1[N+](=O)[O-])OCCO2` it is 150 to 152 °C; for `O=C(O)c1cc([N+](=O)[O-])cc(F)c1F` it is 132 to 134 °C. The figure for `CN(c1ccccc1)S(=O)(=O)c1cccc(C(=O)O)c1` is 148 to 152 °C; for `O=C1CCCc2sc(Br)cc21` it is 76 to 78 °C; for `Nc1ccc(NC(=O)c2ccccc2)nc1` it is 139 to 141 °C. For `O=C(O)c1cccnc1Oc1ccc(F)cc1Br`, the melting point was 189 to 191 °C.

The compound `Cc1ccc(-c2cnnc(N)n2)s1` showed a melting point of 300 to 302 °C. The figure for `CC(C)(C)CC(=O)Nc1ccc(CC(=O)O)cc1` is 179 to 181 °C; for `O=C(O)c1sccc1S(=O)(=O)Nc1ccc(F)cc1` it is 180 to 182 °C; for `Cc1ccc(COc2cccc(N)c2)cc1` it is 81 to 83 °C. Under `CN(C)S(=O)(=O)c1ccc(NC(=O)CCl)cc1` stands 115 to 117 °C; under `CCC(C)(CNC(=O)OC(C)(C)C)C(=O)O` (centres undefined), 113 to 115 °C. Under `O=C(O)c1ccc(-c2nc3ccccc3s2)o1` stands 180 to 188 °C.
